Results reported in ChEMBL document CHEMBL5104172, “Design, synthesis, and antibacterial activity of derivatives of Tryptophanyl-tRNA synthetase inhibitor indolmycin” (Eur J Med Chem, 2022).
Converted amounts (≈) assume the structure as drawn.

Tests used:
Staphylococcus aureus [1] = assay: Antibacterial activity against methicillin-resistant Staphylococcus aureus MRSA17-3 measured by liquid dilution method; assay type: functional
Staphylococcus aureus [2] = assay: Antibacterial activity against methicillin-sensitive Staphylococcus aureus MSSA17-1 measured by liquid dilution method; assay type: functional
Staphylococcus aureus [3] = assay: Antibacterial activity against Staphylococcus aureus ATCC 29213 measured by liquid dilution method; assay type: functional
Enterococcus faecium [4] = assay: Antibacterial activity against Enterococcus faecium EFM17-2 measured by liquid dilution method; assay type: functional
[5] = system: Staphylococcus epidermidis; assay: Antibacterial activity against methicillin-resistant Staphylococcus epidermidis MRSE17-4 measured by liquid dilution method; assay type: functional
Staphylococcus aureus [6] = assay: Antibacterial activity against methicillin-sensitive Staphylococcus aureus MSSA17-2 measured by liquid dilution method; assay type: functional
[7] = system: Staphylococcus epidermidis; assay: Antibacterial activity against methicillin-sensitive Staphylococcus epidermidis MSSE17-2 measured by liquid dilution method; assay type: functional
Staphylococcus aureus [8] = assay: Antibacterial activity against vancomycin-intermediate Staphylococcus aureus ATCC 700699 measured by liquid dilution method; assay type: functional
Staphylococcus aureus [9] = assay: Antibacterial activity against methicillin-resistant Staphylococcus aureus ATCC 43300 measured by liquid dilution method; assay type: functional
Staphylococcus aureus [10] = assay: Antibacterial activity against methicillin-resistant Staphylococcus aureus MRSA17-5 measured by liquid dilution method; assay type: functional
Staphylococcus aureus [11] = assay: Antibacterial activity against methicillin-resistant Staphylococcus aureus MRSA17-6 measured by liquid dilution method; assay type: functional
Staphylococcus aureus [12] = assay: Antibacterial activity against methicillin-resistant Staphylococcus aureus MRSA17-2 measured by liquid dilution method; assay type: functional
[13] = system: Staphylococcus epidermidis; assay: Antibacterial activity against methicillin-resistant Staphylococcus epidermidis MRSE17-1 measured by liquid dilution method; assay type: functional
Enterococcus faecalis [14] = assay: Antibacterial activity against Enterococcus faecalis ATCC 29212 measured by liquid dilution method; assay type: functional
[15] = Plasma protein binding in CD-1 mouse plasma incubated for 4 hrs and assessed as unbound fraction at 2 uM measured by LC/MS/MS analysis; assay type: ADME, cell-free
[16] = system: Staphylococcus epidermidis; assay: Antibacterial activity against methicillin-sensitive Staphylococcus epidermidis MSSE17-3 measured by liquid dilution method; assay type: functional
[17] = system: Staphylococcus epidermidis; assay: Antibacterial activity against methicillin-resistant Staphylococcus epidermidis MRSE17-6 measured by liquid dilution method; assay type: functional
Enterococcus faecium [18] = assay: Antibacterial activity against Enterococcus faecium EFM17-1 measured by liquid dilution method; assay type: functional
Staphylococcus aureus [19] = assay: Antibacterial activity against vancomycin-intermediate Staphylococcus aureus ATCC 700788 measured by liquid dilution method; assay type: functional
Staphylococcus aureus [20] = assay: Antibacterial activity against methicillin-resistant Staphylococcus aureus MRSA17-1 measured by liquid dilution method; assay type: functional
[21] = Plasma protein binding in CD-1 mouse plasma incubated for 4 hrs at 2 uM measured by LC/MS/MS analysis; assay type: ADME, cell-free; details: read-out: PPB (converted)
[22] = system: Staphylococcus epidermidis; assay: Antibacterial activity against methicillin-sensitive Staphylococcus epidermidis MSSE17-1 measured by liquid dilution method; assay type: functional
[23] = system: Staphylococcus epidermidis; assay: Antibacterial activity against methicillin-resistant Staphylococcus epidermidis MRSE17-2 measured by liquid dilution method; assay type: functional
Staphylococcus aureus [24] = assay: Antibacterial activity against methicillin-sensitive Staphylococcus aureus MSSA17-3 measured by liquid dilution method; assay type: functional
Staphylococcus aureus [25] = assay: Antibacterial activity against methicillin-resistant Staphylococcus aureus ATCC 33591 measured by liquid dilution method; assay type: functional
[26] = system: Staphylococcus epidermidis; assay: Antibacterial activity against methicillin-resistant Staphylococcus epidermidis MRSE17-3 measured by liquid dilution method; assay type: functional
Enterococcus faecalis [27] = assay: Antibacterial activity against Enterococcus faecalis EFA17-1 measured by liquid dilution method; assay type: functional
Helicobacter pylori = assay: Antibacterial activity against Helicobacter pylori measured by liquid dilution method; assay type: functional
Staphylococcus aureus [28] = assay: Antibacterial activity against vancomycin-intermediate Staphylococcus aureus measured by liquid dilution method; assay type: functional
[29] = Stability in CD-1 mouse whole blood assessed as compound remaining at 2 uM and measured at 60 mins LC-MS/MS analysis; assay type: ADME, tissue-based; details: read-out: Stability
[30] = Stability in CD-1 mouse whole blood assessed as compound remaining at 2 uM and measured at 10 mins LC-MS/MS analysis; assay type: ADME, tissue-based; details: read-out: Stability
[31] = Stability in CD-1 mouse whole blood assessed as compound remaining at 2 uM and measured at 30 mins LC-MS/MS analysis; assay type: ADME, tissue-based; details: read-out: Stability
[32] = Stability in CD-1 mouse whole blood assessed as compound remaining at 2 uM and measured at 120 mins LC-MS/MS analysis; assay type: ADME, tissue-based; details: read-out: Stability

SMILES	MIC (Staphylococcus aureus [1]) [µg/mL]	MIC (Staphylococcus aureus [2]) [µg/mL]	MIC (Staphylococcus aureus [3]) [µg/mL]	MIC (Enterococcus faecium [4]) [µg/mL]	MIC [5] [µg/mL]	MIC (Staphylococcus aureus [6]) [µg/mL]	MIC [7] [µg/mL]	MIC (Staphylococcus aureus [8]) [µg/mL]	MIC (Staphylococcus aureus [9]) [µg/mL]	MIC (Staphylococcus aureus [10]) [µg/mL]	MIC (Staphylococcus aureus [11]) [µg/mL]	MIC (Staphylococcus aureus [12]) [µg/mL]	MIC [13] [µg/mL]	MIC (Enterococcus faecalis [14]) [µg/mL]	fraction unbound at 4 h, 2 µM [15]	MIC [16] [µg/mL]	MIC [17] [µg/mL]	MIC (Enterococcus faecium [18]) [µg/mL]	MIC (Staphylococcus aureus [19]) [µg/mL]	MIC (Staphylococcus aureus [20]) [µg/mL]	other results
CNC1=NC(=O)[C@H]([C@H](C)c2c[nH]c3cccc(F)c23)O1	0.5 (≈ 1.82 µM)	1 (≈ 3.63 µM)	1 (≈ 3.63 µM)	> 128	1 (≈ 3.63 µM)	1 (≈ 3.63 µM)	1 (≈ 3.63 µM)	0.5 (≈ 1.82 µM)	1 (≈ 3.63 µM)	1 (≈ 3.63 µM)	0.5 (≈ 1.82 µM)	1 (≈ 3.63 µM)	2 (≈ 7.27 µM)	> 128	0.2	1 (≈ 3.63 µM)	1 (≈ 3.63 µM)	> 128	0.5 (≈ 1.82 µM)	0.5 (≈ 1.82 µM)	fraction unbound at 4 h, 2 µM [21]: 0.2; MIC [22]: 0.5 µg/mL (≈ 1.82 µM); MIC [23]: 1 µg/mL (≈ 3.63 µM); MIC (Staphylococcus aureus [24]): 0.5 µg/mL (≈ 1.82 µM); MIC (Staphylococcus aureus [25]): 1 µg/mL (≈ 3.63 µM); MIC [26]: 0.5 µg/mL (≈ 1.82 µM); MIC (Enterococcus faecalis [27]): > 128 µg/mL
CNC1=NC(=O)[C@H]([C@H](C)c2c[nH]c3cccc(Cl)c23)O1	0.5 (≈ 1.71 µM)	1 (≈ 3.43 µM)	2 (≈ 6.86 µM)	> 128	1 (≈ 3.43 µM)	1 (≈ 3.43 µM)	0.5 (≈ 1.71 µM)	0.5 (≈ 1.71 µM)	1 (≈ 3.43 µM)	1 (≈ 3.43 µM)	1 (≈ 3.43 µM)	1 (≈ 3.43 µM)	1 (≈ 3.43 µM)	> 128	0.134	0.5 (≈ 1.71 µM)	1 (≈ 3.43 µM)	> 128	1 (≈ 3.43 µM)	1 (≈ 3.43 µM)	fraction unbound at 4 h, 2 µM [21]: 0.134; MIC [22]: 0.25 µg/mL (≈ 0.857 µM); MIC [23]: 0.5 µg/mL (≈ 1.71 µM); MIC (Staphylococcus aureus [24]): 0.5 µg/mL (≈ 1.71 µM); MIC (Staphylococcus aureus [25]): 2 µg/mL (≈ 6.86 µM); MIC [26]: 0.25 µg/mL (≈ 0.857 µM); MIC (Enterococcus faecalis [27]): > 128 µg/mL
CNC1=NC(=O)[C@H]([C@H](C)c2c[nH]c3cc(F)ccc23)O1	8 (≈ 29.1 µM)	16 (≈ 58.1 µM)	16 (≈ 58.1 µM)	> 128	16 (≈ 58.1 µM)	16 (≈ 58.1 µM)	8 (≈ 29.1 µM)	4 (≈ 14.5 µM)	8 (≈ 29.1 µM)	16 (≈ 58.1 µM)	8 (≈ 29.1 µM)	8 (≈ 29.1 µM)	16 (≈ 58.1 µM)	> 128	–	8 (≈ 29.1 µM)	16 (≈ 58.1 µM)	> 128	8 (≈ 29.1 µM)	8 (≈ 29.1 µM)	MIC [22]: 8 µg/mL (≈ 29.1 µM); MIC [23]: 16 µg/mL (≈ 58.1 µM); MIC (Staphylococcus aureus [24]): 8 µg/mL (≈ 29.1 µM); MIC (Staphylococcus aureus [25]): 16 µg/mL (≈ 58.1 µM); MIC [26]: 4 µg/mL (≈ 14.5 µM); MIC (Enterococcus faecalis [27]): > 128 µg/mL
CNC1=NC(=O)[C@H]([C@H](C)c2c[nH]c3ccccc23)O1 [INDOMYCIN]	0.25 (≈ 0.972 µM)	0.5 (≈ 1.94 µM)	0.5 (≈ 1.94 µM)	> 128	1 (≈ 3.89 µM)	0.5 (≈ 1.94 µM)	0.5 (≈ 1.94 µM)	0.125 (≈ 0.486 µM)	0.25 (≈ 0.972 µM)	0.5 (≈ 1.94 µM)	0.25 (≈ 0.972 µM)	0.5 (≈ 1.94 µM)	1 (≈ 3.89 µM)	> 128	0.441	0.5 (≈ 1.94 µM)	1 (≈ 3.89 µM)	> 128	0.25 (≈ 0.972 µM)	0.5 (≈ 1.94 µM)	MIC90 (Helicobacter pylori): 0.031 µg/mL (≈ 0.12 µM); MIC (Staphylococcus aureus [28]): 0.125 µg/mL (≈ 0.486 µM); fraction unbound at 4 h, 2 µM [21]: 0.441; MIC [22]: 0.25 µg/mL (≈ 0.972 µM); MIC [23]: 1 µg/mL (≈ 3.89 µM); MIC (Staphylococcus aureus [24]): 0.25 µg/mL (≈ 0.972 µM); MIC (Staphylococcus aureus [25]): 1 µg/mL (≈ 3.89 µM); MIC [26]: 0.25 µg/mL (≈ 0.972 µM); MIC (Enterococcus faecalis [27]): > 128 µg/mL
CC(C)[N+](C)(CCOC(=O)C1c2ccccc2Oc2ccccc21)C(C)C [PROPANTHELINE BROMIDE]	–	–	–	–	–	–	–	–	–	–	–	–	–	–	–	–	–	–	–	–	remaining at 1 h, 2 µM [29]: 64.7%; remaining at 10 min, 2 µM [30]: 93.5%; remaining at 0.5 h, 2 µM [31]: 82.9%; remaining at 2 h, 2 µM [32]: 38.3%
CC(=O)CC(c1ccccc1)c1c(O)c2ccccc2oc1=O (centres undefined) [WARFARIN]	–	–	–	–	–	–	–	–	–	–	–	–	–	–	0.098	–	–	–	–	–	fraction unbound at 4 h, 2 µM [21]: 0.098
